Where “and” joins values, the source holds several entries; their conditions need not be identical. Equal entries are not always repeated. ± gives the expanded uncertainty stated by the source.
Assay: molar heat capacity at constant pressure
Settings: 101.33 kPa, Small (less than 1 g) adiabatic calorimetry

CCCCCCCCCCCCCCn1cc[n+](C)c1.O=S(=O)([N-]S(=O)(=O)C(F)(F)F)C(F)(F)F
Settings	molar heat capacity at constant pressure
180 K, Crystal 2	473.1 ± 2.4 J/K/mol
180.86 K, Crystal 2	474.8 ± 2.4 J/K/mol
181.71 K, Crystal 2	476.2 ± 2.4 J/K/mol
183.59 K, Crystal 2	479.9 ± 2.4 J/K/mol
184.16 K, Crystal 2	480.9 ± 2.4 J/K/mol
186.32 K, Crystal 2	485.4 ± 2.5 J/K/mol
186.61 K, Crystal 2	485.8 ± 2.5 J/K/mol
189.04 K, Crystal 2	490.7 ± 2.5 J/K/mol
189.07 K, Crystal 2	490.4 ± 2.5 J/K/mol
190 K, Crystal 2	492.5 ± 2.5 J/K/mol
191.51 K, Crystal 2	495.2 ± 2.5 J/K/mol
191.77 K, Crystal 2	496.1 ± 2.5 J/K/mol
193.95 K, Crystal 2	500 ± 2.5 J/K/mol
194.49 K, Crystal 2	501.3 ± 2.5 J/K/mol
196.39 K, Crystal 2	504.9 ± 2.6 J/K/mol
197.2 K, Crystal 2	507 ± 2.6 J/K/mol
198.82 K, Crystal 2	509.9 ± 2.6 J/K/mol
199.91 K, Crystal 2	512.5 ± 2.6 J/K/mol
200 K, Crystal 2	512.7 ± 2.6 J/K/mol
201.26 K, Crystal 2	515.7 ± 2.6 J/K/mol
202.62 K, Crystal 2	518.2 ± 2.6 J/K/mol
203.7 K, Crystal 2	520.6 ± 2.6 J/K/mol
205.33 K, Crystal 2	523.7 ± 2.7 J/K/mol
206.13 K, Crystal 2	525.4 ± 2.7 J/K/mol
208.03 K, Crystal 2	529.6 ± 2.7 J/K/mol
208.56 K, Crystal 2	530.7 ± 2.7 J/K/mol
210 K, Crystal 2	533.6 ± 2.7 J/K/mol
210.73 K, Crystal 2	535.2 ± 2.7 J/K/mol
210.99 K, Crystal 2	535.9 ± 2.7 J/K/mol
213.42 K, Crystal 2	541.2 ± 2.7 J/K/mol and 540.9 ± 2.7 J/K/mol
215.85 K, Crystal 2	546.3 ± 2.8 J/K/mol
216.12 K, Crystal 2	547 ± 2.8 J/K/mol
218.27 K, Crystal 2	551.8 ± 2.8 J/K/mol
218.8 K, Crystal 2	552.9 ± 2.8 J/K/mol
220 K, Crystal 2	556 ± 2.8 J/K/mol
220.69 K, Crystal 2	557.4 ± 2.8 J/K/mol
221.49 K, Crystal 2	559.3 ± 2.8 J/K/mol
223.1 K, Crystal 2	562.9 ± 2.8 J/K/mol
224.17 K, Crystal 2	565.7 ± 2.9 J/K/mol
225.52 K, Crystal 2	568.8 ± 2.9 J/K/mol
226.84 K, Crystal 2	572.3 ± 2.9 J/K/mol
227.93 K, Crystal 2	575.1 ± 2.9 J/K/mol
229.5 K, Crystal 2	579.5 ± 2.9 J/K/mol
230 K, Crystal 2	580.3 ± 2.9 J/K/mol
230.33 K, Crystal 2	581.3 ± 2.9 J/K/mol
232.15 K, Crystal 2	586.6 ± 3 J/K/mol
232.74 K, Crystal 2	587.7 ± 3 J/K/mol
234.8 K, Crystal 2	593.8 ± 3 J/K/mol
235.14 K, Crystal 2	593.7 ± 3 J/K/mol
237.44 K, Crystal 2	600.9 ± 3 J/K/mol
237.53 K, Crystal 2	600.1 ± 3 J/K/mol
239.92 K, Crystal 2	607.2 ± 3.1 J/K/mol
240 K, Crystal 2	607.6 ± 3 J/K/mol
240.07 K, Crystal 2	608 ± 3.1 J/K/mol
242.33 K, Crystal 2	613.8 ± 3.1 J/K/mol
242.71 K, Crystal 2	616.1 ± 3.1 J/K/mol
244.72 K, Crystal 2	621.4 ± 3.1 J/K/mol
245.33 K, Crystal 2	624.4 ± 3.1 J/K/mol
247.1 K, Crystal 2	629.1 ± 3.2 J/K/mol
247.95 K, Crystal 2	632.9 ± 3.2 J/K/mol
249.48 K, Crystal 2	637 ± 3.2 J/K/mol
250 K, Crystal 2	639.3 ± 3.3 J/K/mol
250.55 K, Crystal 2	642.1 ± 3.2 J/K/mol
251.33 K, Crystal 2	642.4 ± 3.2 J/K/mol
252.65 K, Crystal 2	648 ± 3.3 J/K/mol
253.15 K, Crystal 2	651.7 ± 3.3 J/K/mol
253.97 K, Crystal 2	653.1 ± 3.3 J/K/mol
255.29 K, Crystal 2	657.1 ± 3.3 J/K/mol
255.74 K, Crystal 2	660.9 ± 3.3 J/K/mol
256.6 K, Crystal 2	662.4 ± 3.3 J/K/mol
257.91 K, Crystal 2	667.6 ± 3.4 J/K/mol
258.31 K, Crystal 2	671.7 ± 3.4 J/K/mol
259.22 K, Crystal 2	673.8 ± 3.4 J/K/mol
260 K, Crystal 2	677.5 ± 3.4 J/K/mol
260.52 K, Crystal 2	679.4 ± 3.4 J/K/mol
260.86 K, Crystal 2	683.4 ± 3.4 J/K/mol
261.81 K, Crystal 2	685.8 ± 3.4 J/K/mol
263.1 K, Crystal 2	692.1 ± 3.5 J/K/mol
263.41 K, Crystal 2	696 ± 3.5 J/K/mol
264.39 K, Crystal 2	699.3 ± 3.5 J/K/mol
265.67 K, Crystal 2	706.4 ± 3.5 J/K/mol
265.94 K, Crystal 2	709.4 ± 3.6 J/K/mol
266.97 K, Crystal 2	713.8 ± 3.6 J/K/mol
268.24 K, Crystal 2	721.6 ± 3.6 J/K/mol
268.46 K, Crystal 2	725 ± 3.6 J/K/mol
269.5 K, Crystal 2	730 ± 3.7 J/K/mol
270 K, Crystal 2	734.5 ± 3.7 J/K/mol
270.76 K, Crystal 2	739.3 ± 3.7 J/K/mol
270.95 K, Crystal 2	741.9 ± 3.7 J/K/mol
272.01 K, Crystal 2	748.9 ± 3.8 J/K/mol
273.25 K, Crystal 2	759 ± 3.8 J/K/mol
273.42 K, Crystal 2	761.2 ± 3.8 J/K/mol
274.48 K, Crystal 2	769.6 ± 3.9 J/K/mol
275.71 K, Crystal 2	781.6 ± 3.9 J/K/mol
275.87 K, Crystal 2	783.5 ± 3.9 J/K/mol
276.93 K, Crystal 2	793.6 ± 4 J/K/mol
278.14 K, Crystal 2	807.6 ± 4 J/K/mol
278.29 K, Crystal 2	809.7 ± 4.1 J/K/mol
279.35 K, Crystal 2	822 ± 4.1 J/K/mol
280 K, Crystal 2	830.5 ± 4.1 J/K/mol
280.54 K, Crystal 2	837.6 ± 4.2 J/K/mol
280.67 K, Crystal 2	840.7 ± 4.2 J/K/mol
281.72 K, Crystal 2	855 ± 4.3 J/K/mol
282.9 K, Crystal 2	874.3 ± 4.4 J/K/mol
283.02 K, Crystal 2	878.3 ± 4.4 J/K/mol
284.05 K, Crystal 2	895.5 ± 4.5 J/K/mol
285.2 K, Crystal 2	918.1 ± 4.6 J/K/mol
285.31 K, Crystal 2	923.3 ± 4.6 J/K/mol
286.34 K, Crystal 2	943.8 ± 4.7 J/K/mol
287.46 K, Crystal 2	972.2 ± 4.9 J/K/mol
287.56 K, Crystal 2	977.1 ± 4.9 J/K/mol
288.56 K, Crystal 2	1003 ± 5 J/K/mol
289.65 K, Crystal 2	1034 ± 5 J/K/mol
289.75 K, Crystal 2	1039 ± 5 J/K/mol
290 K, Crystal 2	1046 ± 5 J/K/mol
290.72 K, Crystal 2	1067 ± 5 J/K/mol
291.76 K, Crystal 2	1097 ± 6 J/K/mol
291.87 K, Crystal 2	1102 ± 6 J/K/mol
292.8 K, Crystal 2	1118 ± 6 J/K/mol
293.83 K, Crystal 2	1139 ± 6 J/K/mol
293.96 K, Crystal 2	1145 ± 6 J/K/mol
294.85 K, Crystal 2	1153 ± 6 J/K/mol
295.5 K, Crystal 1	1155 ± 6 J/K/mol
295.5 K, Crystal 2	1155 ± 6 J/K/mol
295.86 K, Crystal 1	1154 ± 6 J/K/mol
296 K, Crystal 1	1156 ± 6 J/K/mol
296.87 K, Crystal 1	1144 ± 6 J/K/mol
297.93 K, Crystal 1	998.8 ± 5.7 J/K/mol
298.13 K, Crystal 1	971.7 ± 5.6 J/K/mol
298.15 K, Crystal 1	971.6 ± 5 J/K/mol
299.06 K, Crystal 1	853.3 ± 4.4 J/K/mol
300 K, Crystal 1	851.8 ± 4.4 J/K/mol
300.22 K, Crystal 1	854.4 ± 4.3 J/K/mol
300.42 K, Crystal 1	852.5 ± 4.3 J/K/mol
301.39 K, Crystal 1	866.6 ± 4.3 J/K/mol
302.54 K, Crystal 1	889.6 ± 4.5 J/K/mol
302.77 K, Crystal 1	884.7 ± 4.5 J/K/mol
303.68 K, Crystal 1	937.6 ± 5.1 J/K/mol
304.77 K, Crystal 1	1081 ± 7 J/K/mol
304.97 K, Crystal 1	1130 ± 9 J/K/mol
305.73 K, Crystal 1	1438 ± 11 J/K/mol
308.77 K, Crystal 1	898.6 ± 4.5 J/K/mol
308.77 K, Liquid	896.2 ± 4.5 J/K/mol
310 K, Liquid	897.4 ± 4.5 J/K/mol
320 K, Liquid	907.2 ± 4.5 J/K/mol
330 K, Liquid	917 ± 4.6 J/K/mol
340 K, Liquid	926.7 ± 4.6 J/K/mol
350 K, Liquid	936.5 ± 4.6 J/K/mol
360 K, Liquid	946.2 ± 4.7 J/K/mol
370 K, Liquid	956 ± 4.7 J/K/mol
